Measured values published in article PMC5859971 (Genes & Development, 2018).
“And” between values parts separate entries of the source, which are not always exact repeats. Equal values may be shown once. “Also recorded” adds a separate entry of the source.

What was measured:
HCT116-PHF5A^WT = test: CellTiter-Glo viability assay, HCT116-PHF5A^WT; format: cell-based, human; details: Homo sapiens; 72 h, CellTiter-Glo; read-out: HCT116-PHF5A^WT GI50
Protocol: (§1) To further validate the pose of the compound, we analyzed the activity of several related chemical probes using the SPA with the purified protein complex ([Teng et al. 2017]). The SPA is formatted as a competition assay in which the purified protein complex is captured on a bead containing scintillant, incubated with test compounds over a dose response, and then competed off with a fixed concentration of ^3H-Plad compound. IC50 curves are then measured from the resulting light emitted from the bead (Table 1; Supplemental Fig. S4). In addition, we tested the probes in viability assays in two engineered cell lines: HCT116-PHF5A^WT and the sensitization line HCT116-PHF5A^R38C (Table 1; Supplemental Fig. S5). This facilitates profiling of chemical probe activity in the PHF5A background (wild type and mutant). The relative expression levels were further confirmed by Western blot analysis (Supplemental Fig. S5).
(§2) Parental HCT116 cells were obtained from American Type Culture Collection and cultured in RPMI 1640 medium supplemented with 10% fetal bovine serum. PHF5A R38C was generated using the Agilent QuikChange II kit and was cloned into pLenti6.3/V5 as described ([Teng et al. 2017]). The verified clone was used for lentivirus production using X293T cells. Parental HCT116 cells were infected with virus and selected with blasticidin S at 10 µg mL^−1 for 1 wk. Engineered cell lines were subsequently maintained in the absence of antibiotic. Transgene expression was confirmed by Western blot analysis (Supplemental Fig. S4). For Western blot analysis, α-PHF5A rabbit polyclonal antibody (Protein Tech, 15554-1-AP) was used at 1:1000 dilution in LI-COR buffer, and anti-rabbit secondary antibody (LI-COR) was used at 1:5000 dilution. The Western blot was imaged using an Odyssey V3.0 imager (LI-COR). For CellTiter-Glo analysis of the wild-type and PHF5A^R38C cell lines, 500 cells were seeded in each well of a 384-well plate 1 d before compound addition. Dose response was measured in 11-point serial dilutions with a top dose of 10 µM. The percentage of DMSO was controlled throughout, and a DMSO-only control was included. Seventy-two hours after dosing, CellTiter-Glo reagent was added, incubated, and assayed on an EnVision multilabel reader (PerkinElmer). Luminescence values from each treatment were normalized to the average value of the respective DMSO control. The dose response curve plots were generated in GraphPad Prism, and GI50 values were calculated from nonlinear regression analysis. GI50 values for the wild-type and R38C mutant cell lines were plotted in Spotfire.

[1] = target: T1, SF3b subcomplex (SF3B1 residues 454–1304, SF3B3, PHF5A, SF3B5) (Homo sapiens, UniProt O75533+Q7RTV0); test: Microscale thermophoresis (MST) compound binding to SF3b subcomplex; details: SF3b subcomplex bound to NTA-647 fixed at 10 nM
T1 construct: SF3B1 was limited to the HEAT repeat domain from residues 454–1304 and cloned in-frame with an N-terminal Flag tag; Truncated SF3B1 and full-length SF3B3, PHF5A, and SF3B5 were synthesized; made in house; host or cells: SF21 insect cells (baculovirus, pFastBac1)
Protocol: (§3) The four-protein complex composed of the HEAT repeats of SF3B1 (residues 454–1304) as well as full-length SF3B3, SF3B5, and PHF5A was coexpressed and purified from insect cells. This complex is necessary and sufficient for compound binding in a scintillation proximity assay (SPA) format ([Teng et al. 2017]).
(§4) The SF3b subcomplex was first titrated against a fixed concentration (25 nM) of fluorescent label (NTA-647) to determine the optimal concentrations of protein and label for the MST experiment. After 15 min of incubation at room temperature, samples were loaded into Monolith NT.115 capillaries, and MST analysis was performed using a Monolith NT.115Pico. […] For subsequent compound-binding experiments, the SF3b subcomplex bound to NTA-647 was fixed at 10 nM, and the compound was titrated from 50 µM to 3 pM. After 15 min of incubation, samples were loaded into capillaries, and analysis was performed as described previously.
Binding of E7107 to SF3b 4-protein complex by MicroScale Thermophoresis (MST). The complex is
labeled with the fluorescent dye NTA-647 and kept constant at 10 nM. E7107 was titrated and a KD of
3.6 nM was determined for the interaction.
(1 picture or pasted object on this page, not shown here)

[2] = target: T2, wild-type mini-SF3b complex (4-protein SF3b complex) (Homo sapiens, UniProt O75533+Q7RTV0); test: Scintillation proximity assay (SPA) competition with 3H-labeled pladienolide probe; format: binding; details: competition with 10 nM 3H-labeled pladienolide probe, 25 nM protein; read-out: SPA IC50
T2 construct: SF3B1 was limited to the HEAT repeat domain from residues 454–1304 and cloned in-frame with an N-terminal Flag tag; Truncated SF3B1 and full-length SF3B3, PHF5A, and SF3B5 were synthesized; made in house; host or cells: SF21 insect cells (baculovirus, pFastBac1)
Protocol: as §1
Batch immobilization of the anti-Flag antibody (Sigma) to the anti-mouse PVT SPA scintillation beads (PerkinElmer) was prepared as follows. For every 1.5 mg of beads, 10 µg of antibody was prepared in 150 µL of PBS. The antibody–bead mixture was incubated for 30 min at room temperature and centrifuged at 18,000g for 5 min. One-hundred-fifty microliters of PBS was used to resuspend every 1.5 mg of antibody–bead mixture. The aforementioned mini-SF3b complex was tested for ^3H-labeled pladienolide probe binding ([Kotake et al. 2007]). One-hundred microliters of binding reactions was prepared with […] of bead slurry and 0 or 50 nM protein in buffer (20 mM HEPES at pH 8, 200 mM KCl, 5% glycerol). The mixture was incubated for 30 min, and varying concentrations of ^3H-labeled pladienolide probe were added. The mixture was incubated for 30 min, and luminescence signals were read using a MicroBeta2 plate counter (PerkinElmer). Compound competition studies were performed with the wild-type mini-SF3b complex. One-hundred microliters of binding reactions was prepared with 50 µL of bead slurry, 25 nM protein in buffer, and compounds at varying concentrations. After 30 min of preincubation, 10 nM ^3H-labeled pladienolide probe was added. The reactions were incubated for 30 min, and luminescence signals were read.
The Scintillation proximity assay (SPA) competition assay with 10 nM 3H tracer for different Pladienolide analogs binding to the 4-protein SF3b complex. Error bars represent STD for 2 or more measurements. Red = E7107, Orange = PladD, Purple = PladF, Green = compound 2, red = compound 3, gray = compound 4, black = compound 5, blue = compound 6. […]

HCT116-PHF5A^R38C = test: CellTiter-Glo viability assay, HCT116-PHF5A^R38C; format: cell-based, human
Protocol: as §1, §2

[3] = target: T3, PHF5A^Y36C mutant complex (Homo sapiens, UniProt O75533+Q7RTV0, Y36C); test: MST compound binding to PHF5A^Y36C mutant complex; details: result in words
T3 construct: SF3B1 was limited to the HEAT repeat domain from residues 454–1304 and cloned in-frame with an N-terminal Flag tag; Truncated SF3B1 and full-length SF3B3, PHF5A, and SF3B5 were synthesized; Flag (N); made in house; host or cells: SF21 insect cells (inferred to be made as the wild-type complex)
Protocol: as §3, §4

T3 sequence (Q15393 whole entry, the tested form may be a part): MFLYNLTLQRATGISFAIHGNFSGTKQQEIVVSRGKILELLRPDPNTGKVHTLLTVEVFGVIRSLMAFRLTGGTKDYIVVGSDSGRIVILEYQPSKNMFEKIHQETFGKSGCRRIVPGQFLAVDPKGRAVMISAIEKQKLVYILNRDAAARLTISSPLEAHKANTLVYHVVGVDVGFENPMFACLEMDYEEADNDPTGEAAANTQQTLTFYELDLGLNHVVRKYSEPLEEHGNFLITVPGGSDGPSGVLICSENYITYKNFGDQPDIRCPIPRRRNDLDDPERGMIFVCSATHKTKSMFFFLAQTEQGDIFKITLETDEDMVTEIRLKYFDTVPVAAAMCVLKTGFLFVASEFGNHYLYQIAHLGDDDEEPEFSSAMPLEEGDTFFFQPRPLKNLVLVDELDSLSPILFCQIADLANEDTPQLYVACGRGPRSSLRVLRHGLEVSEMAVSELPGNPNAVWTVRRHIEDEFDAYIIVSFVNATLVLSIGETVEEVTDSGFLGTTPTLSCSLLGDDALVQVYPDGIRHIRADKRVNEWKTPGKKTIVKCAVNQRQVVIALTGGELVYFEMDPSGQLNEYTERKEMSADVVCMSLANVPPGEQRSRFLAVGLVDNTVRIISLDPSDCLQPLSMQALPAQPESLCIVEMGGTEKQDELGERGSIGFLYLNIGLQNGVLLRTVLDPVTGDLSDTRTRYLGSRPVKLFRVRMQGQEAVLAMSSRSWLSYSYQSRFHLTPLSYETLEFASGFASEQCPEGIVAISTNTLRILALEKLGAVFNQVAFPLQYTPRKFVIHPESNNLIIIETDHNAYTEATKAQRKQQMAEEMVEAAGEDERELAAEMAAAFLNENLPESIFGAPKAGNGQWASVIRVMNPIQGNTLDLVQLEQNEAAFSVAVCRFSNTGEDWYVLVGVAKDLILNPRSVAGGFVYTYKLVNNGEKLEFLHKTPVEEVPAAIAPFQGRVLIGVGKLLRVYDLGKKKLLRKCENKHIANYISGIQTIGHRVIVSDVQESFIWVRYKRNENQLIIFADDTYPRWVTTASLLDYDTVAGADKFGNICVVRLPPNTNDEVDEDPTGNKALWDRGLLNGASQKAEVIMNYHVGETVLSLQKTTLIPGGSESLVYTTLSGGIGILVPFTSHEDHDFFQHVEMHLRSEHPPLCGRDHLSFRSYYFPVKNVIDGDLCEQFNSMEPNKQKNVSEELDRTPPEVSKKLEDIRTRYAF
T3 sequence (Q9BWJ5 whole entry, further chain, the tested form may be a part): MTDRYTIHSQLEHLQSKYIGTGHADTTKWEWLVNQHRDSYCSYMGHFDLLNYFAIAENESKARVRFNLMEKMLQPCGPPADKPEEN
T3 sequence (O75533 454-1304): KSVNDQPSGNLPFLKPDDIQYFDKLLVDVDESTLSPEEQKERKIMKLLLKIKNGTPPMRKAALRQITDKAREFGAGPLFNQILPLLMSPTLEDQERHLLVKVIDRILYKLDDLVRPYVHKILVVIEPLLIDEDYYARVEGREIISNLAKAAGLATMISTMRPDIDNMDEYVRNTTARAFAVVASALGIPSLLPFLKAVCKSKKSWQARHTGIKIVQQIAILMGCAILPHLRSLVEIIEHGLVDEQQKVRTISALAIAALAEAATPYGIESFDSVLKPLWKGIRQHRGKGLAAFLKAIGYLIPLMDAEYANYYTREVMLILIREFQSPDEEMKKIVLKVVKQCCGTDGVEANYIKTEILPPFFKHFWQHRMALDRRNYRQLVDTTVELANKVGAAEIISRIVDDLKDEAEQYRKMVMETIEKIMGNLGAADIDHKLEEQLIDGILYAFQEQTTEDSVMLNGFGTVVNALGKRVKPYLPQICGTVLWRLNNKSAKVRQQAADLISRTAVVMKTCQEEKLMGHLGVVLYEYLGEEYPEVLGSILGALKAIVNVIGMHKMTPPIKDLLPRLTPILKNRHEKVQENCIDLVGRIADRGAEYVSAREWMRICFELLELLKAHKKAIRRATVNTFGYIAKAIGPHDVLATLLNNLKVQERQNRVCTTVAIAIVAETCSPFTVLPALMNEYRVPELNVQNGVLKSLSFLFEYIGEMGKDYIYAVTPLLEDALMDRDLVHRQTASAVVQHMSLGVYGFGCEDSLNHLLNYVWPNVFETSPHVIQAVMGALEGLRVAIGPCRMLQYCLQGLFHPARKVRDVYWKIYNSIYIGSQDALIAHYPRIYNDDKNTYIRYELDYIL
T3 sequence (Q7RTV0 whole entry Y36C, the tested form may be a part): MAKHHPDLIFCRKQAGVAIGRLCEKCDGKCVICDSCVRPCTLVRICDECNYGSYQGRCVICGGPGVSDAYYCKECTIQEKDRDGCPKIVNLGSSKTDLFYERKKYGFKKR
T1 sequence (O75533 454-1304): as the sequence (O75533 454-1304) above
T1 sequence (Q9BWJ5 whole entry, further chain, the tested form may be a part): as the sequence (Q9BWJ5 whole entry, further chain, the tested form may be a part) above
T1 sequence (Q7RTV0 whole entry, the tested form may be a part): as the sequence (Q7RTV0 whole entry Y36C, the tested form may be a part) above, with C36Y counted along it
T1 sequence (Q15393 whole entry, further chain, the tested form may be a part): as the sequence (Q15393 whole entry, the tested form may be a part) above
T2 sequence (Q7RTV0 whole entry, the tested form may be a part): as the sequence (Q7RTV0 whole entry Y36C, the tested form may be a part) above, with C36Y counted along it
T2 sequence (Q15393 whole entry, further chain, the tested form may be a part): as the sequence (Q15393 whole entry, the tested form may be a part) above
T2 sequence (O75533 454-1304): as the sequence (O75533 454-1304) above
T2 sequence (Q9BWJ5 whole entry, further chain, the tested form may be a part): as the sequence (Q9BWJ5 whole entry, further chain, the tested form may be a part) above

For `CCC(O)C(C)C1OC1CC(C)(O)C=CC=C(C)C1OC(=O)CC(O)CCC(C)(O)C(OC(=O)N2CCN(C3CCCCCC3)CC2)C=CC1C` (stereo not shown) [Compound E7107], the GI50 (HCT116-PHF5A^WT) was 2.3 nM, the Kd [1] was 3.6 nM and ~3.6 nM and the IC50 [2] was 67 nM. The “sensitization (enhanced potency in PHF5A^R38C vs wild type)” value (HCT116-PHF5A^R38C; GI50 R38C vs wild type, n = 2) was “twofold”, the GI50 (HCT116-PHF5A^R38C; Homo sapiens, 72 h, CellTiter-Glo, read-out: HCT116-PHF5A^R38C GI50) was 1.2 nM and the “PHF5A^R38C sensitization phenotype (words)” value (HCT116-PHF5A^R38C; R38C vs wild type) was “sensitization”. The “binding to PHF5A^Y36C mutant complex” value [3] was “no binding was detected; also recorded: not able to bind”.
